Data as given in ChEMBL document CHEMBL5500414 (J Med Chem, 2024).

How the values were obtained:
BCL2A1/BID [1] = biological target: T1, BCL2A1/BID (Homo sapiens, UniProt Q16548)
T1 sequence (Q16548 whole entry): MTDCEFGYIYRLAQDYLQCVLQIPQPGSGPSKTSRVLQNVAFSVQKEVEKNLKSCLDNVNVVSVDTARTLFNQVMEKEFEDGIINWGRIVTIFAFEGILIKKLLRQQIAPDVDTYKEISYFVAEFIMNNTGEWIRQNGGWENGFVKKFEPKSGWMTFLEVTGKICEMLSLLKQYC
T1 sequence (P55957 whole entry): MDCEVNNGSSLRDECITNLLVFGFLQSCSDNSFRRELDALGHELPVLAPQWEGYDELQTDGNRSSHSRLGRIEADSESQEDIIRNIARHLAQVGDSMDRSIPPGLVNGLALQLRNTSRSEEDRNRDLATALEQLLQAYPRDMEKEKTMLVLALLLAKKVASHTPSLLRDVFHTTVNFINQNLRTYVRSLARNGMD

MV4-11 = experiment: Antiproliferative activity against human MV4-11 cells expressing high BCL-2 assessed as cell viability measured after 72 hrs by Cell Counting Kit-8 assay; conditions: MV4-11, 72 h
Pfeiffer = experiment: Antiproliferative activity against human Pfeiffer cells expressing high BCL-2/BFL-1 assessed as cell viability measured after 72 hrs by Cell Counting Kit-8 assay
[2] = biological target: Induced myeloid leukemia cell differentiation protein Mcl-1/BH3-interacting domain death agonist (Homo sapiens, UniProt Q07820)
Description: Inhibition of MCL-1 (unknown origin)/FAM-BID (unknown origin) interaction measured by fluorescence polarization assay

[3] = Glutathione reactivity assessed as half life
BCL2A1/BID [4] = biological target: T1, BCL2A1/BID; remark: listed apart in the source
Description: Inhibition of BFL-1 (unknown origin)/FITC-conjugated Bid BH3 peptide (unknown origin) interaction by fluorescence polarization assay

[5] = biological target: Induced myeloid leukemia cell differentiation protein Mcl-1 (Homo sapiens, UniProt Q07820); experiment: Binding affinity to MCL-1 (unknown origin) assessed as inhibition constant by time-resolved fluorescence resonance energy transfer binding affinity assays
Bcl-2-related protein A1 [6] = biological target: Bcl-2-related protein A1 (Homo sapiens, UniProt Q16548, C55A); experiment: Binding affinity to BFL-1 C55A mutant (unknown origin) assessed as inhibition constant by fluorescence polarization assay
Bcl-2-related protein A1 [7] = biological target: T2, Bcl-2-related protein A1 (Homo sapiens, UniProt Q16548); experiment: Binding affinity to wild type human BFL-1 assessed as inhibition constant by SPR assay
T2 sequence (Q16548 whole entry): T1 sequence (Q16548 whole entry)

Chain of Induced myeloid leukemia cell differentiation protein Mcl-1/BH3-interacting domain death agonist (Q07820 whole entry, one chain of several, the tested form may be a part): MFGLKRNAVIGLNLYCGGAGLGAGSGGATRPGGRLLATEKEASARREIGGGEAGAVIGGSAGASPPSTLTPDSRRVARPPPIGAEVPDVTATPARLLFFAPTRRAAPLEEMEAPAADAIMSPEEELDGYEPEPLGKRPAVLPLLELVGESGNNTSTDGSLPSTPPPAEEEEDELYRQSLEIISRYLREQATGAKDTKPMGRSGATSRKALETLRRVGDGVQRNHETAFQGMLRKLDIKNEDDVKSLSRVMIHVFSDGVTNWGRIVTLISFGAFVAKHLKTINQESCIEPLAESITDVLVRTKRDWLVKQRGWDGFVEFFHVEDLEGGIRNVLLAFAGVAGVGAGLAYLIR
Chain of Induced myeloid leukemia cell differentiation protein Mcl-1 (Q07820 whole entry): as the sequence (Q07820 whole entry, one chain of several, the tested form may be a part) above
Chain of Bcl-2-related protein A1 (Homo sapiens, UniProt Q16548, C55A) (Q16548 whole entry C55A): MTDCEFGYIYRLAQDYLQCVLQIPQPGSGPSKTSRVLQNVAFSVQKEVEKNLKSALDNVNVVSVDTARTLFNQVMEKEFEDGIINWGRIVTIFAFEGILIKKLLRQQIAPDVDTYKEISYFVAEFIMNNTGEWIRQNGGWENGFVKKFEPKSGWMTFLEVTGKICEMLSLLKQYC

Row | Structure (SMILES) | Ki (BCL2A1/BID [1]) | further results
1 | C=CC(=O)Nc1ccc2c(c1)CCC(CN1CCN(c3ccc(C(=O)O)cc3)CC1)=C2c1ccn[nH]1 | > 20000 nM | –
2 | C=CC(=O)Nc1ccc2c(c1)CCC(CN1CCN(c3ccc(C(=O)OCC)cc3)CC1)=C2c1ccc(Cl)cc1 | > 20000 nM | –
3 | Nc1ccc2c(c1)CCC(CN1CCN(c3ccc(C(=O)NS(=O)(=O)c4ccc(NCC5CCOCC5)c([N+](=O)[O-])c4)c(Oc4cnc5[nH]ccc5c4)c3)CC1)=C2c1ccc(Cl)cc1 | 1170 nM | IC50 (MV4-11): 4420 nM; IC50 (Pfeiffer): 8900 nM; Ki [2]: 4760 nM
4 | C=CC(=O)Nc1ccc2c(c1)CCC(CN1CCN(c3ccc(C(=O)O)cc3)CC1)=C2c1ccc(Cl)cc1 | 525 nM | –
5 | C=CC(=O)Nc1ccc2c(c1)CCC(CN1CCN(c3ccc(C(=O)O)cc3)CC1)=C2c1cccc(Cl)c1 | > 20000 nM | –
6 | C=CC(=O)Nc1ccc2c(c1)CCC(CN1CCN(c3ccc(C(=O)O)cc3)CC1)=C2c1cnn(C)c1 | > 20000 nM | –
7 | C=CC(=O)Nc1ccc2c(c1)CCC(CN1CCN(c3cccc(C(=O)O)c3)CC1)=C2c1ccc(Cl)cc1 | > 20000 nM | –
8 | C=CC(=O)N(C)c1ccc2c(c1)CCC(CN1CCN(c3ccc(C(=O)O)cc3)CC1)=C2c1ccc(Cl)cc1 | 373 nM | –
9 | C=CC(=O)N(CC)Cc1ccc2c(c1)CCC(CN1CCN(c3ccc(C(=O)O)cc3)CC1)=C2c1ccc(Cl)cc1 | 335 nM | –
10 | C=CC(=O)Nc1ccc2c(c1)CCC(CN1CCN(c3ccc(C(=O)O)cc3)CC1)=C2c1ccc(OC)cc1 | > 20000 nM | –
11 | C=CC(=O)N1CCN(c2c3ccc(-c4cccc(F)c4)cc3nn2Cc2ccccc2)CC1 | 465 nM | –
12 | C=CC(=O)Nc1ccc2c(c1)CCC(CN1CCN(c3ccc(C(=O)O)cc3)CC1)=C2c1ccc(Cl)cc1OC | 959 nM | –
13 | CCc1cc(Cl)ccc1C1=C(CN2CCN(c3ccc(C(=O)NS(=O)(=O)c4ccc(NCC5CCOCC5)c([N+](=O)[O-])c4)c(Oc4cnc5[nH]ccc5c4)c3)CC2)CCc2cc(N)ccc21 | 1130 nM | IC50 (MV4-11): 3690 nM; IC50 (Pfeiffer): 8050 nM; Ki [2]: 3300 nM
14 | C=CC(=O)Nc1ccc2c(c1)CCC(CN1CCN(c3ccc(C(=O)NS(=O)(=O)c4ccccc4)cc3)CC1)=C2c1ccc(Cl)cc1 | > 20000 nM | –
15 | C=CC(=O)N(c1ccc2c(c1)CCC(CN1CCN(c3ccc(C(=O)O)cc3)CC1)=C2c1ccc(Cl)cc1CC)C(C)C | 140 nM | –
16 | C=CC(=O)Nc1ccc2c(c1)CCC(CN1CCN(c3ccc(C(=O)O)cc3)CC1)=C2c1ccc(O)cc1 | > 20000 nM | –
17 | C=CC(=O)Nc1ccc2c(c1)CCC(CN1CCN(c3ccc(C(=O)O)c(-c4ccncc4)c3)CC1)=C2c1ccc(Cl)cc1 | 370 nM | –
18 | C=CC(=O)Nc1ccc2c(c1)CCC(CN1CCN(c3ccc(C(=O)O)cc3)CC1)=C2C1CC1 | > 20000 nM | –
19 | C=CC(=O)Nc1ccc2c(c1)CCC(CN1CCN(c3ccc(C(=O)O)cc3-c3ccccc3)CC1)=C2c1ccc(Cl)cc1 | > 20000 nM | –
20 | C=CC(=O)Nc1ccc2c(c1)CCC(CN1CCN(c3ccc(C(=O)O)c(N(C)CCCO)c3)CC1)=C2c1ccc(Cl)cc1 | > 20000 nM | –
21 | CN(C)C/C=C/C(=O)Nc1cc2c(Nc3ccc(F)c(Cl)c3)ncnc2cc1O[C@H]1CCOC1 [AFATINIB] | – | half-life [3]: 13.2 min

Row | Structure (SMILES) | Ki (BCL2A1/BID [1]) | further results
22 | C=CC(=O)Nc1ccc2c(c1)CCC(CN1CCN(c3ccc(C(=O)O)cc3)CC1)=C2c1ccc(Cl)cc1F | 361 nM | –
23 | C=CC(=O)Nc1ccc2c(c1)CCC(CN1CCN(c3ccc(C(=O)O)cc3)CC1)=C2c1cccc2cc[nH]c12 | > 20000 nM | –
24 | C=CC(=O)Nc1ccc2c(c1)CCC(CN1CCNCC1)=C2c1ccc(Cl)cc1 | > 20000 nM | –
25 | CN1CCN(C2=C(Cl)C(=O)N(c3ccc(Cl)c(Cl)c3)C2=O)CC1 | – | IC50 (BCL2A1/BID [4]): 400 nM
26 | C=CC(=O)N(C)Cc1ccc2c(c1)CCC(CN1CCN(c3ccc(C(=O)O)cc3)CC1)=C2c1ccc(Cl)cc1 | 326 nM | –
27 | O=C(CCl)Nc1ccc2c(c1)CCC(CN1CCN(c3ccc(C(=O)O)cc3)CC1)=C2c1ccc(Cl)cc1 | 997 nM | –
28 | C=CC(=O)Nc1ccc2c(c1)CCC(CN1CCN(c3ccc(C(=O)O)cc3)CC1)=C2c1ccc(Cl)cc1Cl | 256 nM | –
29 | C=CC(=O)Nc1ccc2c(c1)CCC(CN1CCN(c3ccc(C(=O)O)cc3)CC1)=C2c1ccc(Cl)cc1CC | 158 nM | –
30 | C=CC(=O)Nc1ccc2c(c1)CCC(CN1CCN(c3ccc(C(=O)O)cc3)CC1)=C2c1cn[nH]c1 | > 20000 nM | –
31 | C=CC(=O)Nc1ccc2c(c1)CCC(CN1CCN(c3ccc(C(=O)O)cc3)CC1)=C2c1ccccc1OC | > 20000 nM | –
32 | C=CC(=O)Nc1ccc2c(c1)CCC(CN1CCN(c3ccc(C(=O)O)cc3)CC1)=C2c1cccc(OC)c1 | 723 nM | –
33 | C=CC(=O)Nc1ccc2c(c1)CCC(CN1CCN(c3ccc(C(=O)O)cc3)CC1)=C2c1cccc(O)c1 | > 20000 nM | –
34 | C=CC(=O)Nc1ccc2c(c1)CCC(CN1CCN(c3ccc(C(=O)NS(=O)(=O)c4ccc(NCC5CCOCC5)c([N+](=O)[O-])c4)c(Oc4cnc5[nH]ccc5c4)c3)CC1)=C2c1ccc(Cl)cc1CC | 949 nM | IC50 (MV4-11): 2350 nM; IC50 (Pfeiffer): 7280 nM; Ki [2]: 4510 nM
35 | CC1(C)CCC(CN2CCN(c3ccc(C(=O)NS(=O)(=O)c4ccc(NCC5CCOCC5)c([N+](=O)[O-])c4)c(Oc4cnc5[nH]ccc5c4)c3)CC2)=C(c2ccc(Cl)cc2)C1 [VENETOCLAX] | – | IC50 (MV4-11): 440 nM; Ki [5]: > 444 nM; IC50 (Pfeiffer): 6260 nM; Ki [2]: 3750 nM
36 | C=CC(=O)Nc1cc(Nc2nccc(-c3cn(C)c4ccccc34)n2)c(OC)cc1N(C)CCN(C)C [OSIMERTINIB] | – | half-life [3]: 30.6 min
37 | C=CC(=O)Nc1ccc2c(c1)CCC(CN1CCN(c3ccc(C(=O)NS(=O)(=O)c4ccc(NCC5CCOCC5)c([N+](=O)[O-])c4)c(Oc4cnc5[nH]ccc5c4)c3)CC1)=C2c1ccc(Cl)cc1 | > 20000 nM | IC50 (MV4-11): 1790 nM; IC50 (Pfeiffer): 7500 nM; Ki [2]: 4160 nM
38 | C=CC(=O)Nc1ccc2c(c1)CCC(CN1CCN(c3ccc(C(=O)O)cc3)CC1)=C2c1ccncc1 | 5340 nM | –
39 | C=CC(=O)Nc1ccc2c(c1)CCC(CN1CCN(c3ccc(C(=O)O)cc3)CC1)=C2c1ccc(C(=O)O)cc1 | > 20000 nM | –
40 | CCOC(=O)CS(=O)(=O)c1nc(-c2ccc(F)cc2)cc(C(F)(F)F)n1 | – | IC50 (BCL2A1/BID [4]): 2600 nM
41 | C=CC(=O)Nc1ccc2c(c1)CCC(CN1CCN(c3ccc(C(=O)O)c(Oc4cnc5c(ccn5C)c4)c3)CC1)=C2c1ccc(Cl)cc1 | 145 nM | –
42 | C=CC(=O)Nc1ccc2c(c1)CCC(CN1CCN(c3ccc(C(=O)O)cc3)CC1)=C2Br | > 20000 nM | –

Row | Structure (SMILES) | Ki (BCL2A1/BID [1]) | further results
43 | C=CC(=O)Nc1ccc2c(c1)CCC(CN1CCN(c3ccc(C(=O)O)c(N(C)CCCN(C)C)c3)CC1)=C2c1ccc(Cl)cc1 | 774 nM | –
44 | C=CC(=O)Nc1ccc2c(c1)CCC(CN1CCN(c3ccc(C(=O)O)c(-c4ccccc4)c3)CC1)=C2c1ccc(Cl)cc1 | 178 nM | –
45 | C=CC(=O)NCc1ccc2c(c1)CCC(CN1CCN(c3ccc(C(=O)O)cc3)CC1)=C2c1ccc(Cl)cc1 | 913 nM | –
46 | CC(=O)N[C@@H](Cc1c[nH]c2ccccc12)C(=O)NCCSSCCN(C)C | – | EC50 (BCL2A1/BID [4]): 1300 nM
47 | C=CC(=O)Nc1ccc2c(c1)CCC(CN1CCN(c3ccc(C(=O)O)cc3)CC1)=C2c1ccc(Cl)cc1C | 251 nM | –
48 | C=CC(=O)Nc1ccc2c(c1)CCC(CN1CCN(Cc3ccc(C(=O)O)cc3)CC1)=C2c1ccc(Cl)cc1 | > 20000 nM | –
49 | C=CC(=O)Nc1ccc2c(c1)CCC(CN1CCN(c3ccc(C(=O)O)cc3-c3ccncc3)CC1)=C2c1ccc(Cl)cc1 | > 20000 nM | –
50 | C=CC(=O)Nc1ccc2c(c1)CCC(CN1CCN(c3ccccc3C(=O)O)CC1)=C2c1ccc(Cl)cc1 | > 20000 nM | –
51 | C=CC(=O)N(C)c1ccc2c(c1)CCC(CN1CCN(c3ccc(C(=O)O)cc3)CC1)=C2c1ccc(Cl)cc1CC | 218 nM | –
52 | C=CC(=O)Nc1ccc2c(c1)CCC(CN1CCN(c3ccc(C(=O)O)cc3)CC1)=C2c1ccc(C#N)cc1 | > 20000 nM | –
53 | C=CC(=O)Nc1ccc2c(c1)CCC(CN1CCN(Cc3cccc(C(=O)O)c3)CC1)=C2c1ccc(Cl)cc1 | > 20000 nM | –
54 | C=CC(=O)N(CCC)c1ccc2c(c1)CCC(CN1CCN(c3ccc(C(=O)O)cc3)CC1)=C2c1ccc(Cl)cc1CC | 124 nM | Ki [2]: 4400 nM
55 | C=CC(=O)Nc1ccc2c(c1)CCC(CN1CCN(c3ccc(C(=O)O)c(Oc4cnc5[nH]ccc5c4)c3)CC1)=C2c1ccc(Cl)cc1 | 127 nM | IC50 (MV4-11): 19900 nM; IC50 (Pfeiffer): 10600 nM; Ki [2]: 2360 nM
56 | C=CC(=O)Nc1ccc2c(c1)CCC(CN1CCN(c3ccc(C(=O)O)cc3)CC1)=C2c1ccccc1Cl | 409 nM | –
57 | C=CC(=O)Nc1ccc2c(c1)CCC(CN1CCN(c3ccc(C(=O)O)c(Oc4cnc5[nH]ccc5c4)c3)CC1)=C2c1ccc(Cl)cc1CC | 105 nM | IC50 (MV4-11): 12600 nM; Ki (Bcl-2-related protein A1 [6]): 1380 nM; Ki (Bcl-2-related protein A1 [7]): 1950 nM; IC50 (Pfeiffer): 6920 nM; Ki [2]: 1260 nM; half-life [3]: 256 min
58 | C=CC(=O)Nc1ccc2c(c1)CCC(CN1CCN(c3ccc(C(=O)O)cc3)CC1)=C2c1ccccc1 | 781 nM | –
59 | CC(C)(C)c1ccc(CN2CCN(S(=O)(=O)Nc3ccc(SCCc4ccccc4)cc3C(=O)O)CC2)cc1 | 645 nM | IC50 (MV4-11): 46200 nM; IC50 (Pfeiffer): 21300 nM
60 | C=CC(=O)N(CC)c1ccc2c(c1)CCC(CN1CCN(c3ccc(C(=O)O)cc3)CC1)=C2c1ccc(Cl)cc1CC | 110 nM | IC50 (MV4-11): 33500 nM; IC50 (Pfeiffer): 22900 nM
61 | C=CC(=O)Nc1ccc2c(c1)CCC(CN1CCN(c3ccc(C(=O)O)cc3)CC1)=C2c1ccc(NC(C)=O)cc1 | > 20000 nM | –
